Counter-ions that a name gives are not always drawn. Like-named read-outs stand apart in the source and are kept apart here.
Tests used:
[1] = test system: patients suffering from non-constipated irritable bowel syndrome; settings: 1 to 8 mg twice daily, cited from earlier work
[2] = test system: patients suffering from irritable bowel syndrome; experiment: Former clinical studies, ramosetron hydrochloride administered twice daily to patients suffering from irritable bowel syndrome; type: in vivo, human
From the text: The present inventors have carried out intensive investigations for the purpose of creation of novel treating agents for irritable bowel syndrome including non-constipated irritable bowel syndrome such as diarrhea-predominant irritable bowel syndrome and alternating constipation/diarrhea irritable bowel syndrome for which no sufficiently effective treating agent has been available.

[3] = test system: male and female patients suffering from diarrhea-predominant irritable bowel syndrome (IBS); experiment: Clinical study with patients suffering from diarrhea-predominant irritable bowel syndrome (Test Example 1); type: in vivo, human; settings: for final monthly responder rate in the global assessment of relief of overall IBS symptoms: placebo group 26.9%
Description: Clinical study was carried out under the following condition using male and female patients suffering from diarrhea-predominant irritable bowel syndrome (IBS) as subjects.
Subjects: Patients suffering from diarrhea-predominant IBS in accordance with the Rome II Diagnosis Criteria (D. A. Drossman, et al., pages 351 to 432, ROME II: The functional Gastrointestinal Disorders, Second Edition, Degnon Associates, McLean, 2000).
Test drugs and Administration Methods: Placebo and ramosetron hydrochloride were orally administered for 12 weeks at 0.005 mg or 0.01 mg once daily.
Test Periods: Observation period for one week and treating period for 12 weeks
After transition to the treating period, the starting date for administration of the test drug was defined as the first day. Every week, global assessment of relief of overall IBS symptoms was evaluated taking all symptoms by IBS of the subjects into consideration, comparing with their state in the observation period, and this evaluation was recorded in a patient diary. Incidentally, scores for the global assessment of relief of overall IBS symptoms were as follows.
The subjects where the score was 0 or 1 for two weeks or more during the four weeks were made monthly responders and the monthly responder rate per month was calculated separately for each group of 0.005 mg and 0.01 mg of placebo and ramosetron hydrochloride.
After transition to the treating period, the starting date for administration of the test drug was defined as the first day. Every week, global assessment of relief of abdominal discomfort/pain by the test drug was evaluated with the state in the observation period and was recorded in a patient diary. Incidentally, scores for the global assessment of relief of abdominal discomfort/pain were as follows.
After transition to the treating period, the starting date for administration of the test drug was defined as the first day. Every week, global assessment of improvement of abnormal bowel habits was evaluated comparing with the state in the observation period, and was recorded in a patient diary. Incidentally, scores for the global assessment of improvement of abnormal bowel habits were as follows.
With regard to (1) to (3) for the subsidiary evaluation items, they were also subjected to calculations of monthly responder rate the same as those for the main evaluation items.

[4] = 0.005 mg and 0.01 mg once daily, 12 weeks

In the case of `Cc1[nH]cnc1CN1CCc2c(c3ccccc3n2C)C1=O` [alosetron], the “relief of pain and discomfort, stool consistency, bowel movement frequency and proportion of days with urgency, compared with placebo” value ([1]; female patients) is listed as “significant improvement was noted in female patients” and the “relief of pain and discomfort, stool consistency, bowel movement frequency and proportion of days with urgency, compared with placebo” value ([1]; male patients) is listed as “no significant improvement was noted as compared with placebo except stool consistency”.

In the case of `Cn1cc(C(=O)[C@@H]2CCc3[nH]cnc3C2)c2ccccc21` [ramosetron hydrochloride, (−)-(R)-5-[(1-methyl-1H-indol-3-yl)carbonyl]-4,5,6,7-tetrahydro-1H-benzimidazole], the “therapeutic effect as compared with placebo” value [2] is reported as “significant therapeutic effect as compared with placebo was unable to be confirmed”, the “difference in the responder rates between placebo group and ramosetron group: male versus female patients” value ([3]; 0.005 mg and 0.01 mg once daily) is reported as “no difference was noted between male and female patients” and the “final monthly responder rate in the global assessment of relief of abdominal discomfort/pain, better than the placebo group” value [3, 4] is reported as “more than 10%”. For the same molecule, the “final monthly responder rate in the global assessment of relief of abnormal bowel habits, better than the placebo group” value [3, 4] was “more than 10%”, the “therapeutic effect in patients suffering from diarrhea-predominant irritable bowel syndrome (conclusion)” value ([3]; 0.005 mg and 0.01 mg, administration once daily) was “effective for both males and females” and the “final monthly responder rate in the global assessment of relief of overall IBS symptoms” value ([3]; 0.005 mg orally once daily, 12 weeks, p 0.0273 to placebo) was 42.6%. The “final monthly responder rate in the global assessment of relief of overall IBS symptoms” value ([3]; 0.01 mg orally once daily, 12 weeks, p 0.0264 to placebo) was 43.0% and the “monthly responder rate (overall IBS symptoms) in excess of the responder rate in the placebo group” value ([3]; groups of 0.005 mg and 0.01 mg once daily, 12 weeks) was “more than 15%”.
